From patent publication US4188398A, “Method for treating epilepsy” (priority 1978, dated 1980)
Entries after “also recorded” stand apart in the source; their conditions may differ.

Key:
[1] = system: actinomyces; test: Mutagenicity, Air-Shibalsky technique, actinomyces; type: cell-based
[2] = system: lysin locus of actinomyces; test: Mutagenicity, lysin locus of actinomyces; type: cell-based; conditions: same doses
[3] = Acute toxicity, single intraperitoneal administration, 48 hours (Litchfield and Wilcockson); type: in vivo, white mice
Description: The acute toxicity of the proposed preparation was tested on white mice weighing 19 to 20 g, by single intraperitoneal administrations of 1.5- and 10-percent colloidal solutions of the anticonvulsant in a 0.5-percent solution of carboxymethyl cellulose. The animals were observed during 48 hours. In order to establish the median lethal dose (LD50), the experimental data was statistically processed using the Litchfield and Wilcockson techniques. Milontin and zarontin were analyzed in the same way.

[4] = Teratogenic and embryotoxic tests (A. M. Chernukh's method); type: in vivo, mongrel white female rats; conditions: 400 mg/kg per os, rats
Description: Teratogenic and embryotoxic tests of the proposed preparation were carried out by using A. M. Chernukh's method on 35 mongrel white female rats weighing 150 to 200 g. The preparation was introduced per os in a dose of 400 mg/kg.
On the twentieth day of pregnancy, all the animals were decapitated.

[5] = Duration of activity, corazol test; type: in vivo, white mice
Description: (§1) Corazol convulsions and maximum electroshock tests were carried out to determine the duration of the preparation's activity. Two series of experiments were made on white mice weighing 20 to 25 g. In the first series, the preparation was introduced intraperitoneally, whereas in the second series it was introduced into the stomach through a metal probe.
(§2) The anticonvulsive action of effective doses of the proposed preparation (200 mg/kg were introduced intraperitoneally, and 400 mg/kg were introduced per os) was tested every 30 minutes on separate groups of mice, each including 100 animals. The tests were continued until complete termination of the anticonvulsive effect.

[6] = Daily administration for eight weeks, rats (chronic toxicity); type: in vivo; conditions: 400 mg/kg per os once a day
Description: The effects of daily administrations of the proposed anticonvulsant, carried out over prolonged periods of time, were studied on rabbits and rats.
A colloidal solution of the proposed antispasmodic was administered per os in doses of 400 mg/kg to six rats. The drug was introduced through a metal probe once a day for eight weeks.
Every day the animals' weight and body temperature were measured, and their general state was assessed. Once a week, a general blood analysis was made, the urine was analyzed for protein, blood and biliary pigments. Upon the end of the experiment, the animals were killed (the rabbits were destroyed by air embolism; the rats were decapitated). The liver, heart, kidneys, spleen, lungs and different parts of the small intestine and stomach of the freshly killed animals were taken for pathomorphological investigation.

[7] = Electroencephalographic study of threshold and afteraction discharges, curarized animals; type: in vivo, cats and rabbits; conditions: 150 to 200 mg/kg
Description: The central action of the preparation was studied electroencephalographically. The acute experiments were conducted on curarized cats and rabbits and were aimed at investigating the effects of the preparation upon the threshold magnitude and the duration of afteraction discharges of the dorsal hippocamp, […] nuclei of the thalamus and the motor zone of the cortex.

[8] = animal or person
Description: The general effect of the proposed preparation was tested on white mice, rats and rabbits.

[9] = Mutagenicity, threonine locus of Bacillus coli; type: cell-based; conditions: bacillus coli, 0.2-mole concentration
Description: (§3) The preparation was further studied with regard to the threonine locus of Bacillus coli at a 0.2-mole concentration; the object was subjected to treatment during 24 hours; the survival rate of the cells was between 42 and 91 percent.

[10] = system: threonine locus of Bacillus coli; test: Mutagenicity, threonine locus of Bacillus coli; type: cell-based; conditions: 0.2-mole concentration, 24 hours
Description: as §3

[11] = Maximum electroshock test
Description: The anticonvulsant action of the proposed preparation was tested on mice weighing 19 to 25 g and rats weighing 120 to 150 g by conducting maximum electroshock, corazol, strychnine, camphor, nicotine and arecoline tests.

[12] = Duration of urethane-induced sleep; type: in vivo
Source text: Nembutal was used as a trunk narcotic, and urethane as a cortical narcotic.

[13] = Single versus multiple administration, antagonism to corazol (addiction / habit forming); type: in vivo
[14] = Clinical study in epilepsy patients; type: in vivo, human (patients)
Description: The therapeutic effectiveness of the preparation was evaluated while treating different forms of epilepsy.
The patient's age was between 4 and 56 years with the period of sickness ranging from 2 to 18 years. The different forms of the disease fell into the following categories according to clinical and encephalographic data: polymorphous fits with a deep temporal or frontotemporal focus of epileptic activity; psychomotor fits of pseudo absentia epileptica; generalized tonico-clonic convulsive fits; true absentia epileptica with myoclonic atonic fits and cerebrovascular diseases of the central nervous system, resulting in temporal epileptic fits and polymorphous fits.
The duration of the course of treatment varied from 3 months to 3 years.
The preparation of the present invention was administered per os 3 to 6 times a day; each time a patient was given a tablet of 0.25 g so that the daily dose of the preparation was 0.75 to 1.5 g. […] In a group of 40 patients, examination of other electroencephalographic convulsive manifestations was accompanied by studying focal paroxysmal phenomena in the temporal lobes.

[15] = Neurotoxicity: rightening, gait, stance, muscle tone and equilibrium tests; type: in vivo; conditions: P = 0.05
Description: The neurotoxicity levels were determined by conducting rightening, gait, stance, muscle tone and equilibrium tests.

[16] = Duration of activity, maximum electroshock test; type: in vivo, white mice
Description: as §1, §2

[17] = Other pharmacological properties (vegetative nervous system, blood pressure, breathing, neuromuscular conduction); type: in vivo; conditions: intraperitoneally or per os
[18] = system: Bacillus coli; type: cell-based
[19] = corazol, 200 mg/kg intraperitoneally

Compound: CC(C)Oc1ccc(C2CC(=O)NC2=O)cc1 (stereo not drawn) [proposed preparation, α-/para-isopropoxyphenyl/succinimide]
- mutagenous effect [1]: no mutagenous effect
- mutagenous effect [2]: weak mutagenous effect
- revertants induced [2]: no more than 41 revertants
- revertants relative to control [2]: thrice as great as that of the control
- relative toxicity ([3]; compared with milontin and zarontin): the least toxic of all; also recorded: more than two times less toxic than milontin; also recorded: one and half times less toxic than zarontin
- LD50 ([3]; intraperitoneal, white mice, P=0.05, 2880 min, listed as Preparation in accordance with invention): 2,150 (1,930 to 2,390) mg/kg
- LD50 at 48 h ([3]; mouse, in vivo, ip, intraperitoneal, white mice, P=0.05): 2150 mg/kg
- development of pregnancy [4]: the pregnancy developed normally
- abnormalities in embryos' growth, internal organs and skeletons ([4]; twentieth day of pregnancy): did not reveal any abnormalities in their growth
- duration of effect, oral versus intraperitoneal ([5]; corazol test): lasts longer in the case of oral administration
- time after which effect totally disappears [5, 19]: three
- time of maximum anticonvulsive effect [5, 19]: 60 min
- time after which activity is gradually brought down ([5]; corazol, 400 mg/kg per os): six
- time after which effect totally disappears ([5]; corazol, 400 mg/kg per os): about eight
- time for which maximum level is maintained ([5]; corazol, 400 mg/kg per os): four and a half
- time of maximum anticonvulsive effect ([5]; corazol, 400 mg/kg per os): 90 min
- organ changes, macroscopic and microscopic histochemical investigation [6]: no changes were observed
- weight, body temperature, general state, blood and urine composition [6]: no changes were registered in the weight, body temperature and general state of the animals
- afteraction discharges of the thalamic nuclei [7]: prevented afteraction discharges of the thalamic nuclei
- convulsion threshold of the hippocamp [7]: slightly raised the convulsion threshold of the hippocamp
- period of discharges in the cortex [7]: considerably reduces the period of discharges in the cortex
- spread of convulsive activity to other brain structures [7]: prevents the spread of the convulsive activity to other brain structures
- stimulation threshold of the motor zone of the cortex [7]: does not raise the stimulation threshold of the motor zone of the cortex
- minimal effective dose ([8]; Mus musculus, ip, read-out: least dose to produce a noticeable effect on the animals' behavior): 200 mg/kg
- effect on general state of the animals per os versus intraperitoneal ([8]; per os, animals (mice, rats, rabbits)): not as marked as in the case of intraperitoneal administration
- dose inducing lying position and sleep ([8]; white mice, intraperitoneal): more than 1,000 milligrams per kilogram of weight
- fold induction at 24 h, 200000 µM ([9]; read-out: revertants relative to control (spontaneous mutation)): 1.8
- viability at 24 h, 200000 µM ([9]; read-out: survival rate of the cells): 42 to 91%
- genetic action [10]: extremely weak genetic action
- revertants induced [10]: no more than 17 revertants
- ED50 ([11]; Mus musculus, read-out: ED50 (Electroshock)): 77 mg/kg
- protection index I=TD50/ED50, Electroshock ([11]; electroshock): 9.35
- protection index PI (mean lethal dose / mean effective dose), Electroshock ([11]; electroshock): 28
- anticonvulsant activity in maximum electroshock test ([11]; in words): anticonvulsant activity was only exhibited by the proposed preparation and milontin
- Average Duration of Urethane-Induced Sleep ([12]; P = 0.05, urethane 1,000 mg/kg, proposed preparation 100 mg/kg, zarontin 150 mg/kg, milontin 100 mg/kg): 3.2 ± 1.3 min
- effect upon the duration of urethane-induced sleep ([12]; in words): no effect upon the duration of urethane-induced sleep
- habit forming properties [13]: devoid of habit forming properties
- insomnia and disturbed sleep ([14]; administered shortly before bedtime): almost all the patients complained of insomnia and disturbed sleep
- itching of the skin, weakness and dizziness ([14]; after 3 or 4 days of treatment): very few cases
- time to discontinuation or lower frequency of seizures ([14]; after beginning of treatment, dose of 0.25 g): 7 to 8 days
- therapeutic effect in convulsive forms of epilepsy ([14]; cases of diffusive electroencephalographic pathology): week therapeutic effect
- effect in secondary generalized seizures ([14]; clinically and electroencephalographically established focal changes): ineffective
- depressing action upon the central nervous system ([14]; compared with other antiepileptic drugs): not as intense as that of other antiepileptic drugs
- patients in whom fits discontinued ([14]; group of 40 patients, after 10 to 14 days, per os 0.75 to 1.5 g daily): 18 patients
- anticonvulsive effect versus milontin and celontin in psychomotor and convulsive fits ([14]; human, in vivo): somewhat more effective
- effect on minor epileptic fits associated with anterior trunkal localization of the epileptic focus ([14]; human, in vivo): the most effective in stopping minor epileptic fits
- increased frequency of fits ([14]; human, in vivo): never resulted in an increased frequency of fits
- nausea ([14]; human, in vivo): Some patients complained of nausea
- potentiating effect upon convulsive paroxysms ([14]; human, in vivo): absence of a potentiating effect upon convulsive paroxysms
- weakness or dizziness in the day time ([14]; human, in vivo): does not cause weakness or dizziness in the day time
- sleep ([14]; last dose 3 or 4 hours before bedtime): normal sleep was soon restored
- allergic manifestations or somatic abnormalities ([14]; patients): no allergic manifestations or somatic abnormalities were observed
- effect on ambivalence of reactions, ability for mental work and night sleep ([14]; patients): improves the ambivalence of reactions and the ability for mental work; night sleep becomes deeper and longer
- effect on mood, affectivity, anxieties, stresses ([14]; patients): improves the general mood of patients, reduces affectivity, eliminates anxieties and relieves stresses
- effect upon aggressive, quarrelsome and importune epileptics ([14]; patients): soothing effect
- laboratory analyses of blood and urine ([14]; patients): no pathological changes
- pathologic changes in the blood system ([14]; patients): no pathologic changes in the blood system
- therapeutic effect in polymorphous paroxysms and fits of the temporal type ([14]; per os 0.75 to 1.5 g daily): the most effective in cases of polymorphous paroxysms and fits of the temporal type
- memory of actual events ([14]; psychologic examination): improves the memory of actual events
- reduction of frequency of fits ([14]; remaining 22 of 40 patients, per os 0.75 to 1.5 g daily): reduced from 3 to 4 a week to 2 to 3 a month
- sedative effect ([14]; single doses of 0.5 g): weak and short-lived sedative effect
- toxic neurological complications ([14]; uninterrupted courses up to eight months): does not result in any toxic neurological complications
- TD50 (mean neurotoxic dose) ([15]; listed as Preparation according to invention): 720(588 to 883) mg/kg
- TD50 ([15]; in vivo, read-out: TD50 (mean neurotoxic dose)): 720 mg/kg
- time for which effect is maintained at its peak ([16]; maximum electroshock): seven
- duration of effect, oral versus intraperitoneal ([16]; maximum electroshock test): lasts longer in the case of oral administration
- blood pressure, breathing and neuromuscular conduction [17]: no changes are observed in the blood pressure, breathing and neuromuscular conduction
- effect on the vegetative nervous system [17]: no effect upon the vegetative nervous system
- mutagenous effect [18]: no mutagenous effect
